Test results reported in patent publication US20230257396A1, “MACROCYCLES AND THEIR USE” (BLOSSOMHILL THERAPEUTICS, INC., priority 2020, published 2023).
Changes are numbered by the printed parent chain.

Assays:
Experiment in all cases: KINOMEscan kinase binding assay (Eurofins/DiscoveRx), % Ctrl
[1] = molecular target: T1, kinases (Homo sapiens, UniProt P09619); details: 1 μM; target PDGFRB
T1 construct: purchased Eurofins/DiscoveRx; host or cells: E. coli BL21-derived host (T7 phage display) for most kinases; HEK-293 for the rest
T1 sequence (P09619 33-1106): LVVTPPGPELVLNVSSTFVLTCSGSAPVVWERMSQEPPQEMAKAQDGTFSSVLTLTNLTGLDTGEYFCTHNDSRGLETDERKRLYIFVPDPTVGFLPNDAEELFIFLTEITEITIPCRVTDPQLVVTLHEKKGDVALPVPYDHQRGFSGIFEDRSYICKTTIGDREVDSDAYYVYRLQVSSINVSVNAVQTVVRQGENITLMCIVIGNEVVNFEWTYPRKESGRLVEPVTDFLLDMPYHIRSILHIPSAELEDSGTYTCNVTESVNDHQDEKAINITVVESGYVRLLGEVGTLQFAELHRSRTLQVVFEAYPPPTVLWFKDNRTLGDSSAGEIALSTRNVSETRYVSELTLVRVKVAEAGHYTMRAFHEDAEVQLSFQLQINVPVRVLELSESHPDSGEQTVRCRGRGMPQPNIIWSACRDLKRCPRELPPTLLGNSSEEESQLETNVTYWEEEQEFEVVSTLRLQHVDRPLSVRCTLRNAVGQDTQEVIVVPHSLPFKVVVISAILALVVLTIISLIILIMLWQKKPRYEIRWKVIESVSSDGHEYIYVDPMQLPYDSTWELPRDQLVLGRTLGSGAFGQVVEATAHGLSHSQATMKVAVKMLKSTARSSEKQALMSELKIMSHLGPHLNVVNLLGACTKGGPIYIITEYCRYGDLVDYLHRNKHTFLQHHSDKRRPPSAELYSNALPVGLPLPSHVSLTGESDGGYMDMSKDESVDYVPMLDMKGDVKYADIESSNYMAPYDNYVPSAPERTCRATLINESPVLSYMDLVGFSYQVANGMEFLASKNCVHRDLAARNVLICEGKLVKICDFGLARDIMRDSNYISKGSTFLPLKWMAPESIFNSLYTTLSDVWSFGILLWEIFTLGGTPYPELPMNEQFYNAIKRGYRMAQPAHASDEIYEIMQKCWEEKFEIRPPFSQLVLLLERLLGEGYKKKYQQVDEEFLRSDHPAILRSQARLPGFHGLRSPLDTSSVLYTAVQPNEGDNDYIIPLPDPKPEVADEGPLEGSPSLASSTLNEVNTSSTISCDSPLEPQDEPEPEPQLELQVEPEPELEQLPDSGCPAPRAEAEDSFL
How it was run: (§1)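 Read-out is qPCR of kinase eluted from ligand-coated streptavidin beads after 1 h room-temperature competition with test compound. Values are % Ctrl at the tested concentration, lower meaning tighter binding.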

[2] = molecular target: T2, kinases (Homo sapiens, UniProt P10721, T670I/V559D); details: 1 μM; target KIT(V559D, T670I)
T2 construct: purchased Eurofins/DiscoveRx; host or cells: E. coli BL21-derived host (T7 phage display) for most kinases; HEK-293 for the rest
T2 sequence (P10721 26-976 V559D/T670I): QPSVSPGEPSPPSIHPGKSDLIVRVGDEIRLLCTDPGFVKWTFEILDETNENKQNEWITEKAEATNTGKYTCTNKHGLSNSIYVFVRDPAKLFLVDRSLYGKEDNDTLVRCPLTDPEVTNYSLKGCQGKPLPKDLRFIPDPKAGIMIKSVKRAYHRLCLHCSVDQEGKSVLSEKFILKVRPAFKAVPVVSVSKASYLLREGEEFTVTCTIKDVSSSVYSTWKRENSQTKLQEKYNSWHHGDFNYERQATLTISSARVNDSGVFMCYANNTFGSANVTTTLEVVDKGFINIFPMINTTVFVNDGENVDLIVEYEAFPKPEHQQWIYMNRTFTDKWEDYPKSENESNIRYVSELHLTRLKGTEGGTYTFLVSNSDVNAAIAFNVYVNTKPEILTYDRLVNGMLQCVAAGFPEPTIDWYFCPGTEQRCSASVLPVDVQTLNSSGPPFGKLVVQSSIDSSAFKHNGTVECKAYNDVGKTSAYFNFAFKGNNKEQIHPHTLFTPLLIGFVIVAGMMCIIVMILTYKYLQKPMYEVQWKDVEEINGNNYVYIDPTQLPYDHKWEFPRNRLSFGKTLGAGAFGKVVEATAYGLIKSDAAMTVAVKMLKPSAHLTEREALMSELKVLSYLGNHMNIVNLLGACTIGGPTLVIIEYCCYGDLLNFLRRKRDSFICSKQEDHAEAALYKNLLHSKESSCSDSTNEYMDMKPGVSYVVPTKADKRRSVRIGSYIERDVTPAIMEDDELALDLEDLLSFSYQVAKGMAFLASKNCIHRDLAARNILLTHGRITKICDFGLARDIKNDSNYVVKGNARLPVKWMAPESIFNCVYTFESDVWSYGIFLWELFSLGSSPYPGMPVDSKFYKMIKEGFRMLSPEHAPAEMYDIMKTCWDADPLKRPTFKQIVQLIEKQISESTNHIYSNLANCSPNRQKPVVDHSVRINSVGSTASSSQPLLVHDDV
How it was run: as §1

[3] = molecular target: T3, kinases (Homo sapiens, UniProt P10721, V559D/V654A); details: 1 μM; target KIT(V559D, V654A)
T3 construct: purchased Eurofins/DiscoveRx; host or cells: E. coli BL21-derived host (T7 phage display) for most kinases; HEK-293 for the rest
T3 sequence (P10721 26-976 V559D/V654A): as the sequence (P10721 26-976 V559D/T670I) above, with V629A, I645T counted along it
How it was run: as §1

[4] = molecular target: T4, kinases (Homo sapiens, UniProt P17948); details: 1 μM; target FLT1
T4 construct: purchased Eurofins/DiscoveRx; host or cells: E. coli BL21-derived host (T7 phage display) for most kinases; HEK-293 for the rest
T4 sequence (P17948 27-1338): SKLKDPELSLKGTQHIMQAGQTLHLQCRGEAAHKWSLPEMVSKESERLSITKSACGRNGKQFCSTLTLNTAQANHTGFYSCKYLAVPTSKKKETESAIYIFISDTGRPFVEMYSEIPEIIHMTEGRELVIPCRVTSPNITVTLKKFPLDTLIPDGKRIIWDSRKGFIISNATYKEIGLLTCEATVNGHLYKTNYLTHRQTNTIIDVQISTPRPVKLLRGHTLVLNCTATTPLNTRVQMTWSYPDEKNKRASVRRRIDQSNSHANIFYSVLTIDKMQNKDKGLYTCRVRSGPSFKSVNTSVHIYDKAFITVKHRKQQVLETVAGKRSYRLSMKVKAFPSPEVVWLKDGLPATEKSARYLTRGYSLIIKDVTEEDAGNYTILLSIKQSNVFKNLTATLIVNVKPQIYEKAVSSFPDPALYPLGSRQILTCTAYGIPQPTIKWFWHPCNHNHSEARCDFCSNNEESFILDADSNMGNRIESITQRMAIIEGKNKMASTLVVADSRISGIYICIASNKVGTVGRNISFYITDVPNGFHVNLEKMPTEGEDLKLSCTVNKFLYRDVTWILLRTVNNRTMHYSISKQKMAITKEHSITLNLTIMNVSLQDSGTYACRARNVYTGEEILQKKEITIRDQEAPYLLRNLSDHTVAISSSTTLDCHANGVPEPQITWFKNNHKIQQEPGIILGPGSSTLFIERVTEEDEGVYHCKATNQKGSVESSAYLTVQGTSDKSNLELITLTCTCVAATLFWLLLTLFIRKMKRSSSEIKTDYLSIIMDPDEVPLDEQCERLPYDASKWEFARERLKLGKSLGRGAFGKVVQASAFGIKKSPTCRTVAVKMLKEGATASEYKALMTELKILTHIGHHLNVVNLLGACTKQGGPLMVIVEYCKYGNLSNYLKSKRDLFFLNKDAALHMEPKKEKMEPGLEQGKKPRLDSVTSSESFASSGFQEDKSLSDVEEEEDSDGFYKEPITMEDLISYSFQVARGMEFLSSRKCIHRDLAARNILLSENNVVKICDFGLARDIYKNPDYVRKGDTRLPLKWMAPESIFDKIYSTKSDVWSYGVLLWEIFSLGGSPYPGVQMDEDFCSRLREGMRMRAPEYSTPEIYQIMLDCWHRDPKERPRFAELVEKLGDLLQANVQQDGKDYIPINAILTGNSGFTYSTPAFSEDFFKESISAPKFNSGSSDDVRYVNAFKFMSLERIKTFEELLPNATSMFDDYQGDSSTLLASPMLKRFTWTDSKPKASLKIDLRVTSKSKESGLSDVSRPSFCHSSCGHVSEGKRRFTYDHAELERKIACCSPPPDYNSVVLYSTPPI
How it was run: as §1

[5] = molecular target: T5, kinases (Homo sapiens, UniProt P36888); details: 1 μM; for % Ctrl, FLT3: target FLT3; for % Ctrl, FLT3-autoinhibited: target FLT3-autoinhibited
T5 construct: purchased Eurofins/DiscoveRx; host or cells: E. coli BL21-derived host (T7 phage display) for most kinases; HEK-293 for the rest
T5 sequence (P36888 27-993): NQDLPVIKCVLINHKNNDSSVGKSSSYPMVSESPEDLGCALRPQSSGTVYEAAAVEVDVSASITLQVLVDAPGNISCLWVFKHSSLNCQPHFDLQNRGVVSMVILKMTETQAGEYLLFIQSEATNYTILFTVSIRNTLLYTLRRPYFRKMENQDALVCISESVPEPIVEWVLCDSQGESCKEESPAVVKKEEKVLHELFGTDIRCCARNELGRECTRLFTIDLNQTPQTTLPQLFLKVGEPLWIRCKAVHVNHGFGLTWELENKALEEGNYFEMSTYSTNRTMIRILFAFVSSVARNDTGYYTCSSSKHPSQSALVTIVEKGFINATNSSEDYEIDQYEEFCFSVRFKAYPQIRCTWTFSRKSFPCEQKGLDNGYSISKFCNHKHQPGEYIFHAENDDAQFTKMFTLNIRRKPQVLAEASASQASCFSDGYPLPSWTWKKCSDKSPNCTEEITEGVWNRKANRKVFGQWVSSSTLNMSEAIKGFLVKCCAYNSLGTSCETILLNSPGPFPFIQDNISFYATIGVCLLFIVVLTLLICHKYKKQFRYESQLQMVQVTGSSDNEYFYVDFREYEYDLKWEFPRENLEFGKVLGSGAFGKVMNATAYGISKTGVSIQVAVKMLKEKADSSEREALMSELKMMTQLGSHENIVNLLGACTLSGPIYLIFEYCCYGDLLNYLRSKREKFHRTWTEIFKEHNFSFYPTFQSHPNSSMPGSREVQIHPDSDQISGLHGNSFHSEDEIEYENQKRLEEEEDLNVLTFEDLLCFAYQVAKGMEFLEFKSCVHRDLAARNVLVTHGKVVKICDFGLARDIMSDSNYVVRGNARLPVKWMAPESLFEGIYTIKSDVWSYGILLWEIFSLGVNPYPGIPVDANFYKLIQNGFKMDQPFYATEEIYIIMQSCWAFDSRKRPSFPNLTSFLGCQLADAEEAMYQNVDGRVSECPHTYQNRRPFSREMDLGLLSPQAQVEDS
How it was run: as §1

[6] = molecular target: T6, kinases (Homo sapiens, UniProt P36888, R834Q); details: 1 μM; target FLT3(R834Q)
T6 construct: purchased Eurofins/DiscoveRx; host or cells: E. coli BL21-derived host (T7 phage display) for most kinases; HEK-293 for the rest
T6 sequence (P36888 27-993 R834Q): T5 sequence (P36888 27-993) with R808Q
How it was run: as §1

Compound | % Ctrl, PDGFRB [1] | % Ctrl, KIT(V559D, T670I) [2] | % Ctrl, KIT(V559D, V654A) [3] | % Ctrl, FLT1 [4] | % Ctrl, FLT3 [5] | % Ctrl, FLT3-autoinhibited [5] | % Ctrl, FLT3(R834Q) [6]
Cc1cc2c([nH]1)/C=C1\C(=O)Nc3ccc(cc31)-c1cnn(C)c1OCCCN(C)C2=O [Ex. 166, [3a(4)Z]-9,14-dimethyl-9,10,11,12-tetrahydro-14H-1,17-(ethanediylidene)pyrazolo[4,3-n]dipyrrolo[3,2-g:3′,4′-j][1,5]oxazacyclopentadecine-3,8(2H,5H)-dione] | 16 % Ctrl | 65 % Ctrl | 43 % Ctrl | 79 % Ctrl | 4.2 % Ctrl | 2 % Ctrl | 2.1 % Ctrl
Cc1cc2c([nH]1)/C=C1\C(=O)Nc3cc(Cl)c(cc31)SCCOCCN(C)C2=O [Ex. 169, [16a(17)Z]-19-chloro-5-methyl-6,7,9,10-tetrahydro-1H-12,14-(ethanediylidene)dipyrrolo[3,4-g:2′,3′-j][1,4,13]oxathiazacyclopentadecine-4,16(5H,15H)-dione] | 0.9 % Ctrl | 1.6 % Ctrl | 13 % Ctrl | 12 % Ctrl | 1.8 % Ctrl | 12 % Ctrl | 5.9 % Ctrl
Cc1cc2c([nH]1)/C=C1\C(=O)Nc3cnc(cc31)-c1cnn(C)c1CN(C)CCN(C)C2=O [Ex. 172, [3a(4)Z]-6,9,12,14-tetramethyl-9,10,11,12,13,14-hexahydro-17,1-(azenometheno)pyrazolo[4,3-m]dipyrrolo[3,2-f:3′,4′-i][1,4]diazacyclopentadecine-3,8(2H,5H)-dione] | 1.9 % Ctrl | 48 % Ctrl | 40 % Ctrl | 26 % Ctrl | 8.5 % Ctrl | 90 % Ctrl | 16 % Ctrl
